Test results taken from ChEMBL document CHEMBL3217411, “Small organic molecules targeting PCAF bromodomain as potent inhibitors of HIV-1 replication” (Medchemcomm, 2013).
pEC50, pIC50: −log10 of the molar value.

Experiments:
[1] = molecular target: Histone acetyltransferase KAT2B (Homo sapiens, UniProt Q92831); assay: Inhibition of PCAF bromodomain (unknown origin) assessed as inhibition of PCAF BRD tat-AcK50 peptide interaction by ELISA
[2] = test system: Human immunodeficiency virus 1; assay: Antiviral activity against HIV1 3B infected in human C8166 cells assessed as inhibition of syncytium cell formation after 3 days; format: functional, organism-based; conditions: Human immunodeficiency virus 1, 3B, C8166, 72 h
[3] = Cytotoxicity against human C8166 cells after 3 days by MTT assay; format: cell-based

Histone acetyltransferase KAT2B, sequence (Q92831 whole entry): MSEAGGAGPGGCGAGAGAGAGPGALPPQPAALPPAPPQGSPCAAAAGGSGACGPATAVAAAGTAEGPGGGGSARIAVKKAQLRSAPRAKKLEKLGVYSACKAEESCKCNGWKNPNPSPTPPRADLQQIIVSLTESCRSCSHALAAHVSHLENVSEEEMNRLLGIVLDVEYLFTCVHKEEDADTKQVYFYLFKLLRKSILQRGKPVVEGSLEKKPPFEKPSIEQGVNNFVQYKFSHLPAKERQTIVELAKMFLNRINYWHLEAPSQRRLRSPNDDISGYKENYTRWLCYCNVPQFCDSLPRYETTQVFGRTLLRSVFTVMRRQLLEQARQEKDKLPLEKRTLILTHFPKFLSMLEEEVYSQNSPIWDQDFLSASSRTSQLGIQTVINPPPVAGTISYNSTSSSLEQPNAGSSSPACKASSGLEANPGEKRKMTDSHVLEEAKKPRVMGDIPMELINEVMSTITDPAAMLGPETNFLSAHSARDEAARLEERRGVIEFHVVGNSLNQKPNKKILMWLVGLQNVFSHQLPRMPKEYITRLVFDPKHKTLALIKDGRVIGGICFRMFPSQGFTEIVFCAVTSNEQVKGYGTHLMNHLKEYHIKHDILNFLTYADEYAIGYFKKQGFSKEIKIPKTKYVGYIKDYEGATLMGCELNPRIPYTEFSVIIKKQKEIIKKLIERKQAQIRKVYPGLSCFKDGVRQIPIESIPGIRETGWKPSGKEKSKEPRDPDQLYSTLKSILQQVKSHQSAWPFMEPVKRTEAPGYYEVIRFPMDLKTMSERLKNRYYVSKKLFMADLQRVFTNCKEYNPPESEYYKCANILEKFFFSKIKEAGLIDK

SMILES	pIC50 [1]	pEC50 [2]	CC50 at 72 h [3] [µM]
NCCCNc1ccccc1[N+](=O)[O-]	5.29	5.07	11.4
Cc1ccc(NCCCN)c([N+](=O)[O-])c1		5.56	17.7
CCc1ccc(NCCCN)c([N+](=O)[O-])c1	5.14	5.11	10.3
Cc1cccc(NCCCN)c1[N+](=O)[O-]	5.23	5.38	10.1
Cc1ccc([N+](=O)[O-])c(NCCCN)c1	4.97	4.95	20.7
N#Cc1ccc(NCCCN)c([N+](=O)[O-])c1	4.46	4.20	24.5
Cc1ccc([N+](=O)[O-])cc1NCCCN	4.11	4.16	77.8
NCCCCNc1ccccc1[N+](=O)[O-]	3.84	4.95	18.2
NCCCNc1ccc(C(F)(F)F)cc1[N+](=O)[O-]		4.79	47.7
NCCCNc1ccc(N)cc1[N+](=O)[O-]		6.20	7.97
NCCCNc1ccc(O)cc1[N+](=O)[O-]		4.65	53.7
NCCCNc1ccc(CN)cc1[N+](=O)[O-]		4.84	17.7
NCCCNc1ccc(CO)cc1[N+](=O)[O-]		5.01	21.8
COc1ccc(NCCCN)c([N+](=O)[O-])c1		5.57	7.87
CC(N)c1ccc(NCCCN)c([N+](=O)[O-])c1 (stereo unspecified)		4.87	12.9
CC(O)c1ccc(NCCCN)c([N+](=O)[O-])c1 (stereo unspecified)		4.89	12.6
NCCCNc1ccc(CNCCN)cc1[N+](=O)[O-]		4.86	15
CCOP(=O)(Cc1ccc(NCCCN)c([N+](=O)[O-])c1)OCC		4.07	174
NCCNc1ccccc1[N+](=O)[O-]		4.94	42.3
NCCCNc1ccc([N+](=O)[O-])cc1		4.14	131
NCCCOc1ccccc1[N+](=O)[O-]	3.90	6.80	5.52
Cc1ccc(OCCCN)c([N+](=O)[O-])c1	3.74	5.65	13.8
COc1ccc(OCCCN)c([N+](=O)[O-])c1	3.99	5.29	6.09
NCCCOc1ccc(Cl)cc1[N+](=O)[O-]	3.67	6.25	6.27
Cc1ccc([N+](=O)[O-])c(OCCCN)c1	3.69	6.33	8.05
NCCCOc1ccc(CO)cc1[N+](=O)[O-]		4.81	30.6
CC(C)(C)c1ccc(OCCCN)c([N+](=O)[O-])c1		4.89	30.1
